Source: patent US11957783B2, “Topical immunosensitizers to treat viral and fungal infections” (Squarex, LLC, priority 2018, dated 2024)
Several values for one entry are separate records, joined by “and”; a condition that tells them apart may be missing. Equal values may be shown once. Marks after values point to notes of the source that are not given here.

Test system: herpes labialis outbreak
Test: Clinical trial of herpes labialis outbreaks after sensitization dose (Example 2)
Assay type: in vivo, human
Details: for Average days to first outbreak after the sensitization dose: 120 days used if no outbreak in 120 days
Procedure: The median time to the next outbreak for the placebo group was 40 days vs more than 122 days for the 2.0% SADBE group, which difference was highly significant (P=0.009) (Palli 2017). SADBE is a topical immunosensitizer that induces a delayed-type hypersensitivity response and is commonly used in the treatment of verruca vulgaris and alopecia areata (Lee 1999; Silverberg 2000, Rokhshar 1998). […]
(p<0.05). The average days to the first outbreak after the sensitization dose was also measured. […] The A: placebo, 0% SADBE in DMSO.

CCCCOc1c(OCCCC)c(=O)c1=O [2% SADBE]
Persons having an outbreak within X days after the sensitization dose (30 days, group B): 2 (of 16) | Persons having an outbreak within X days after the sensitization dose (30 days, group C): 3 (of 15) | Persons having an outbreak within X days after the sensitization dose (30 days, groups B + C): 5 (of 31) | Persons having an outbreak within X days after the sensitization dose (45 days, group B): 4 (of 16) | Persons having an outbreak within X days after the sensitization dose (45 days, group C): 4 (of 15) | Persons having an outbreak within X days after the sensitization dose (45 days, groups B + C): 8 (of 31) | Persons having an outbreak within X days after the sensitization dose (60 days, group B): 5 (of 16) | Persons having an outbreak within X days after the sensitization dose (60 days, group C): 4 (of 15) | Persons having an outbreak within X days after the sensitization dose (60 days, groups B + C): 9 (of 31) | Persons having an outbreak within X days after the sensitization dose (<120 days, group B): 6 (of 16) | Persons having an outbreak within X days after the sensitization dose (<120 days, group C): 4 (of 15) | Persons having an outbreak within X days after the sensitization dose (<120 days, groups B + C): 10 (of 31) | Days to first new outbreak after sensitization dose on upper arm (each patient): 18 days and 34 days and 37 days and 41 days and 50 days and 80 days and 91 days and >120 days (19×) and 14 days (2×) and 15 days | Average days to first outbreak after the sensitization dose (group B): 88.5 days | Average days to first outbreak after the sensitization dose (group C): 94.7 days | Average days to first outbreak after the sensitization dose (groups B + C): 91.5* days | Days to first new outbreak after sensitization dose on upper arm, median (treatment group): > 120 days
